Results: patent US20230158151A1 (NURIX THERAPEUTICS, INC., priority 2021, published 2023)

Target: T1, ITK (Mus musculus, UniProt Q03526)
T1 construct: administered to mice orally; from tissue; host or cells: mouse splenocytes (spleen) after oral dosing
T1 sequence (Q03526 1-625): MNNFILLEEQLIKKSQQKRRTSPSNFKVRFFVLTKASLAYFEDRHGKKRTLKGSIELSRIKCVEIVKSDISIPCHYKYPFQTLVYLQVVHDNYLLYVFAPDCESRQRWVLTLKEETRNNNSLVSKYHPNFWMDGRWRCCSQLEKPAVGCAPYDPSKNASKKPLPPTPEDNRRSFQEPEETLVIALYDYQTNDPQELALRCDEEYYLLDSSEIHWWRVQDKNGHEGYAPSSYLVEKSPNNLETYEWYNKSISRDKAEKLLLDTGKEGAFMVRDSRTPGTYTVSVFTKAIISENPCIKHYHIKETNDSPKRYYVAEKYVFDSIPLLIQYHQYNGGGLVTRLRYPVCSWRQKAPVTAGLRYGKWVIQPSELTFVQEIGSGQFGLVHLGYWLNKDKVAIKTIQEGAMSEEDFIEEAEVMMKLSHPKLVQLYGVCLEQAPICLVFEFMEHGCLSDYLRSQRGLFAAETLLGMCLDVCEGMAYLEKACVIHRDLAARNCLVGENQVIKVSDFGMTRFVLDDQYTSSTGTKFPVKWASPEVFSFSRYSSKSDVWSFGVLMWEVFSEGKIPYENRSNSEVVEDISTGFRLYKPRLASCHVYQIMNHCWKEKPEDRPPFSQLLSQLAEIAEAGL
Test: Western Assay for ITK Degradation in Mouse Splenocytes after oral administration
Format: in vivo
Conditions: for ITK (%) 90 mpk PO, 6 h / ITK (%) 60 mpk PO, 24 h: % ITK remaining in mouse splenocytes; for ITK degradation in vivo by Western blotting: mouse splenocytes, oral
Experimental: Compounds 30 and 31 were administered to mice orally. After 6 hours, splenocytes cells were harvested. ITK was evaluated by Western blotting. Media was removed and cell pellets were lysed in 100 μL lysis buffer (RIPA buffer (Fisher, PI89901), cOmplete Mini EDTA-free protease inhibitor (Sigma 11836170001), Protease Inhibitor Cocktail (Sigma, P2714), Phosphatase Inhibitor Cocktail 2 and 3 (Sigma, P5726 and P0044), Benzonase (Sigma, E1014)). Cells were lysed overnight at −20° C. Following thaw, cells were centrifuged for 10 min at 13000 rpm, then transferred to new tube. Protein levels were determined by BCA Assay performed according to manufacturer's protocol (EMD Millipore, cat. no. 71285-3). Samples were combined with (4×) LDS Sample Buffer and (10×) Reducing Agent and H2O to equally load 20 μg protein per lane of a 26-well NuPAGE 4-12% Bis-Tris protein gel (1.0 mm, Thermo cat. no. NP0326). Samples were separated by running gels at constant 150 V in NuPAGE MES SDS Running Buffer. Following electrophoresis, proteins were transferred to nitrocellulose membranes using an iBlot Gel Transfer Device and iBlot Gel Transfer Stacks (Thermo cat. no. IB21001 and IB301001) and transfer method P3 (20V for 7 min). Membranes were blocked for 1 hr in 5% milk solution (TBS (0.2% Tween-20)). Following blocking, membranes were incubated with primary antibody (1:1000 CST ITK (2F12) #2380) overnight at 4° C. with gentle shaking. Blots were washed 2× in TBS (0.2% Tween-20), 30 min per wash. Following washes, blots were incubated in secondary HRP-conjugated antibody (Promega anti-Mouse IgG (H+L) HRP cat. no. W4021), 1:5000 in 5% milk solution (TBS (0.2% Tween-20)), for 1 hr at room temperature with gentle shaking. Blots were washed 2× in TBS (0.2% Tween-20), 30 min per wash. Blots were incubated with 1:1 mix of ECL reagents 1 & 2 (Amersham ECL Western Blotting Detection Reagent, cat. no. RPN2106) for 2 min at room temperature. Bands were visualized using a Protein Simple imager. Blots were then re-probed with a combination of anti-actin antibody (Sigma Monoclonal Mouse Anti-β-Actin (clone AC-15), cat. no. A5441) and secondary HRP-conjugated antibody (Promega anti-Mouse IgG (H+L) HRP, cat. no. W4021) and similar steps were taken for incubation, wash, detection and visualization steps as above. The data was analyzed using Alpha View software. The densitometric reading for each sample band was normalized to that of the corresponding actin band per lane. Approximate % ITK remaining per sample was calculated as follows: […]
Once % ITK remaining has been calculated for each sample, groups are averaged together to show an means % ITK normalized to actin and relative to control.
Compounds 30 and 29 were administered to mice orally. After 6 hours or 24 hours, splenocytes cells were harvested. ITK was evaluated by Western blotting. Plasma concentrations were determined by LC/MS/MS. Plasma samples were protein precipitated by addition of 100 μl of acetonitrile containing 50 ng/ml of internal standard. The resulting mixture was vortexed and centrifuged at 4000 RPM for 5 minutes. An aliquot of the resultant supernatant (75 μl) was added to 75 μl of 0.1% formic acid in water to constitute the final sample for injection. Samples were injected on a Shimadzu Exion LC Binary Gradient AD Pump HLPC system connected to a Sciex QTRAP 6500+ mass spectrometer. Five μl of sample was injected onto a Waters Acquity UPLC BEH C18 column 130A (2.1×30 mm, […]) at 40° C. utilizing a flow rate of 700 μl/minute. Mobile Phase A was 0.1% formic acid in water and mobile phase B was 0.1% formic acid in acetonitrile. A linear gradient of 15-95% B over 1.0 minute was used. The mass spectrometer was operated in positive ion electrospray mode with multiple reaction monitoring for maximum sensitivity. Sciex Analyst software (version 1.6.3) was used for LC/MS/MS instrument control and acquisition. […]

| Compound | ITK (%) 90 mpk PO, 6 h | further results |
| --- | --- | --- |
| CN(C(=O)CCC1CCN(c2ccc(C3CCC(=O)NC3=O)cn2)CC1)c1ccc2cc(-c3n[nH]c4c3C[C@@H]3C(F)(F)[C@]3(C)C4)[nH]c2c1 (stereo partly drawn) [Compound 4, N-(2-((4aS,5aR)-5,5-difluoro-5a-methyl-1,4,4a,5,5a,6-hexahydrocyclopropa[f]indazol-3-yl)-1H-indol-6-yl)-3-(1-(5-(2,6-dioxopiperidin-3-yl)pyridin-2-yl)piperidin-4-yl)-N-methylpropanamide] | 76% |  |
| CN(C(=O)CC1CCN(CC2CCN(c3ccc(C4CCC(=O)NC4=O)cn3)CC2)CC1)c1ccc2cc(-c3n[nH]c4c3C[C@@H]3C(F)(F)[C@]3(C)C4)[nH]c2c1 (stereo partly drawn) [Compound 6, N-(2-((4aS,5aR)-5,5-difluoro-5a-methyl-1,4,4a,5,5a,6-hexahydrocyclopropa[f]indazol-3-yl)-1H-indol-6-yl)-2-(1-((1-(5-(2,6-dioxopiperidin-3-yl)pyridin-2-yl)piperidin-4-yl)methyl)piperidin-4-yl)-N-methylacetamide] | 92% |  |
| C[C@@]12Cc3[nH]nc(C(=O)Nc4cnn(CC5CN(C(=O)C6CCN(c7ccc(C8CCC(=O)NC8=O)cn7)CC6)C5)c4)c3C[C@@H]1C2(F)F (stereo partly drawn) [Compound 22, (4aS,5aR)—N-(1-((1-(1-(5-(2,6-dioxopiperidin-3-yl)pyridin-2-yl)piperidine-4-carbonyl)azetidin-3-yl)methyl)-1H-pyrazol-4-yl)-5,5-difluoro-5a-methyl-1,4,4a,5,5a,6-hexahydrocyclopropa[f]indazole-3-carboxamide] | 113% |  |
| C[C@@]12Cc3[nH]nc(C(=O)Nc4cnn(CC5CN(C(=O)C6CN(c7ccc(C8CCC(=O)NC8=O)cn7)C6)C5)c4)c3C[C@@H]1C2(F)F (stereo partly drawn) [Compound 23, (4aS,5aR)—N-(1-((1-(1-(5-(2,6-dioxopiperidin-3-yl)pyridin-2-yl)azetidine-3-carbonyl)azetidin-3-yl)methyl)-1H-pyrazol-4-yl)-5,5-difluoro-5a-methyl-1,4,4a,5,5a,6-hexahydrocyclopropa[f]indazole-3-carboxamide] | 129% |  |
| CC1(C)CCc2c(-c3cc4ccc(N5CCC6(CCN(CC7CCN(c8ccc(C9CCC(=O)NC9=O)cn8)CC7)CC6)C5=O)cc4[nH]3)n[nH]c2C1 (stereo not shown) [Compound 24, 3-(6-(4-((2-(2-(6,6-dimethyl-4,5,6,7-tetrahydro-1H-indazol-3-yl)-1H-indol-6-yl)-1-oxo-2,8-diazaspiro[4.5]decan-8-yl)methyl)piperidin-1-yl)pyridin-3-yl)piperidine-2,6-dione] | 45% |  |
| CC1(C)CCc2c(-c3cc4ccc(C(=O)N5CCN(CC6CCN(c7ccc(C8CCC(=O)NC8=O)cn7)CC6)CC5)cc4[nH]3)n[nH]c2C1 (stereo not shown) [Compound 26, 3-(6-(4-((4-(2-(6,6-dimethyl-4,5,6,7-tetrahydro-1H-indazol-3-yl)-1H-indole-6-carbonyl)piperazin-1-yl)methyl)piperidin-1-yl)pyridin-3-yl)piperidine-2,6-dione] | 11% |  |
| C[C@@]12Cc3[nH]nc(-c4cc5ccc(N6CCC7(CCN(CC8CCN(c9ccc(C%10CCC(=O)NC%10=O)cn9)CC8)CC7)C6=O)cc5[nH]4)c3C[C@@H]1C2(F)F (stereo partly drawn) [Compound 28, 3-(6-(4-((2-(2-((4aS,5aR)-5,5-difluoro-5a-methyl-1,4,4a,5,5a,6-hexahydrocyclopropa[f]indazol-3-yl)-1H-indol-6-yl)-1-oxo-2,8-diazaspiro[4.5]decan-8-yl)methyl)piperidin-1-yl)pyridin-3-yl)piperidine-2,6-dione] | 8% |  |
| C[C@@H](C(=O)N(C)c1ccc2cc(-c3n[nH]c4c3C[C@@H]3C(F)(F)[C@]3(C)C4)[nH]c2c1)N1CCN(CC2CCN(c3ccc(N4CCC(=O)NC4=O)cn3)CC2)CC1 [Compound 29, (S)—N-(2-((4aS,5aR)-5,5-difluoro-5a-methyl-1,4,4a,5,5a,6-hexahydrocyclopropa[f]indazol-3-yl)-1H-indol-6-yl)-2-(4-((1-(5-(2,4-dioxotetrahydropyrimidin-1(2H)-yl)pyridin-2-yl)piperidin-4-yl)methyl)piperazin-1-yl)-N-methylpropanamide] | 14% | ITK degradation in vivo by Western blotting (6 hours): degraded ITK in vivo; ITK degradation in vivo by Western blotting (24 hours): degraded ITK |
| C[C@@H](C(=O)N(C)c1ccc2cc(-c3n[nH]c4c3CCC(C)(C)C4)[nH]c2c1)N1CCN(CC2CCN(c3ccc(N4CCC(=O)NC4=O)cn3)CC2)CC1 [Compound 31, (S)—N-(2-(6,6-dimethyl-4,5,6,7-tetrahydro-1H-indazol-3-yl)-1H-indol-6-yl)-2-(4-((1-(5-(2,4-dioxotetrahydropyrimidin-1(2H)-yl)pyridin-2-yl)piperidin-4-yl)methyl)piperazin-1-yl)-N-methylpropanamide] | 116% | ITK degradation in vivo by Western blotting (6 hours): degraded ITK in vivo; ITK degradation in vivo by Western blotting (24 hours): degraded ITK in vivo |
| C[C@@H](C(=O)N(C)c1ccc2cc(-c3n[nH]c4c3CCC(C)(C)C4)[nH]c2c1)N1CCN(CC2CCN(c3ccc(C4CCC(=O)NC4=O)cn3)CC2)CC1 (stereo partly drawn) [Compound 32, (2S)—N-(2-(6,6-dimethyl-4,5,6,7-tetrahydro-1H-indazol-3-yl)-1H-indol-6-yl)-2-(4-((1-(5-(2,6-dioxopiperidin-3-yl)pyridin-2-yl)piperidin-4-yl)methyl)piperazin-1-yl)-N-methylpropanamide] | 11% |  |
| CC1(C)CCc2c(-c3cc4ccc(C(=O)N5CCC(CN6CCN(c7ccc(C8CCC(=O)NC8=O)nc7)CC6)CC5)cc4[nH]3)n[nH]c2C1 (stereo not shown) [Compound 35, 3-(5-(4-((1-(2-(6,6-dimethyl-4,5,6,7-tetrahydro-1H-indazol-3-yl)-1H-indole-6-carbonyl)piperidin-4-yl)methyl)piperazin-1-yl)pyridin-2-yl)piperidine-2,6-dione] |  | ITK (%) 60 mpk PO, 24 h: >100% |
| CC1(C)CCc2c(-c3cc4ccc(C(=O)N5CCC(CN6CCN(c7ccc(C8CCC(=O)NC8=O)cc7)CC6)CC5)cc4[nH]3)n[nH]c2C1 (stereo not shown) [Compound 37, 3-(4-(4-((1-(2-(6,6-dimethyl-4,5,6,7-tetrahydro-1H-indazol-3-yl)-1H-indole-6-carbonyl)piperidin-4-yl)methyl)piperazin-1-yl)phenyl)piperidine-2,6-dione] |  | ITK (%) 60 mpk PO, 24 h: >100% |
